Experimental data reported in US9770421B2, “Uses for idebenone and related benzoquinones in metabolic disorders and other PPAR α/γ related diseases and conditions” (INDANIO BIOSCIENCE INC., priority 2013, dated 2017).
Entries after “also recorded” stand apart in the source; their conditions may differ.

Assays:
hPPARγ [1] = molecular target: T1, hPPARγ (Homo sapiens, UniProt P37231); assay: HEK293 cell culture luciferase reporter assay, hPPARγ
T1 sequence (P37231 188-477 isoform P37231-2): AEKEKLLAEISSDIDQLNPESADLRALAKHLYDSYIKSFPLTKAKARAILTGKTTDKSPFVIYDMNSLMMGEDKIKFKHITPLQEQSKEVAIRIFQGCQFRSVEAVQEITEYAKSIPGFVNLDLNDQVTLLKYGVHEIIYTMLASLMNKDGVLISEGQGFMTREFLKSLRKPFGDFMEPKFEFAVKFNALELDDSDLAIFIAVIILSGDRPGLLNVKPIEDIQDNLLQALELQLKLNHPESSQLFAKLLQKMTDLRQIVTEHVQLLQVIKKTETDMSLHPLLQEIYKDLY

hPPARγ [2] = molecular target: T1, hPPARγ; assay: PPARγ ligand trap (LT) zebrafish GFP reporter screen/assay; format: in vivo; design: pLT PPARα (aa 178-468) and pLT PPAR γ (aa 188-477) lines; expressed in transfected cells; host or cells: transgenic zebrafish embryos (heat-induced ligand-trap line); details: for GFP reporter activation in LT-PPARγ embryos: transgenic embryos, 48 hpf images
Protocol: Digested DNA was adjusted with 0.1% phenol red. 4.6 nl of DNA solution was injected into the blastomeres of early one-cell stage embryos.
F0 fish were crossed with WT fish to identify germ-line transformed animals, as determined by agonist treatments and GFP expression. F1 progeny showing strong and consistent GFP responses were selected for F2 homozygote production. To avoid reporter GFP silencing of stable transgenic LT lines, homozygous fish showing strong and consistent GFP responses were selected for continued propagation of next generations.
PPARγ ligand trap zebrafish screens were performed under optimized conditions in 96-well format using the ImageXpress Velos Laser Scanning Cytometer. 1 or 2 dpf embryos were heat induced (28→37° C.) for 30 minutes, de-chorionated and then arrayed in 96-well plates (5 per well). Embryo water (0.075 g/L NaHCO3, 0.018 g/L Sea salt, 0.0084 g/L CaSO42H2O) was removed and 200 μl of fresh embryo water/well including dissolved small molecules or solvent was added.
Also included was the CoQ10 analog idebenone.

3T3-L1 cells = assay: Murine 3T3-L1 adipocyte differentiation assay (Oil Red O); format: cell-based; details: with dexamethasone, isobutylmethylxanthine and insulin; Oil Red O staining
Protocol: The cell line was originally obtained from ATCC and 3T3-L1 cells were maintained in the fibroblasts stage in DMEM (Gibco: 11995-065), 10% FBS (Gibco: 26140-079) and Pen-Strep solution (Gibco: 15140-122). Cells were grown in 75 cm^2 flasks and sub-cultured just prior to confluence. Medium was removed and washed twice with PBS. For cell differentiation 2 day post-confluent monolayers were incubated for 2 days in DMEM containing: 10% fetal bovine serum (FBS), 100 μg/ml IBMX (from a 500× stock in 0.15 M KOH, prepared fresh), 390 ng/ml dexamethasone (from a 1000× stock in EtOH) and 5 μg/ml insulin (from a 1000× stock in 0.1 M HCl). After 2 days media was replaced with DMEM+ 10% FBS and 5 μg insulin only and cells were maintained for another 2 days. Media was then replaced by DMEM+ 10% FBS for 5-6 days until differentiation was complete. After differentiation media was removed and cells were washed twice with PBS and then fixed in 4% PFA. Lipids were stained with Oil O red.

PPARα = molecular target: T2, PPARα (Homo sapiens, UniProt Q07869); assay: HEK293 cell culture luciferase reporter assay, hPPARα
T2 sequence (Q07869 178-468): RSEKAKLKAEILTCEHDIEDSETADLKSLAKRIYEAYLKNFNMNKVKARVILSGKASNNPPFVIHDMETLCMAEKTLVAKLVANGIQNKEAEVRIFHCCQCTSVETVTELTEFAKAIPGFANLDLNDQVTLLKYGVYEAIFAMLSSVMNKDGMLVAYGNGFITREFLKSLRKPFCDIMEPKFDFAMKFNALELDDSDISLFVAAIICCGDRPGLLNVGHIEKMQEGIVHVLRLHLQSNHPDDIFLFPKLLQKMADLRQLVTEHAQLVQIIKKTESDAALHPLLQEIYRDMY

[3] = tested on: diet-induced obese C57BL/6J male mice; assay: Diet-induced-obese (DIO) mouse study; format: in vivo
Protocol: Mouse-based biomedical research was performed by the Jackson Laboratory to test the efficacy of idebenone in a diet-induced-obese (DIO) mouse model and approved by the Institutional Animal Care and Use Committee (IACUC). To test the efficacy of idebenone in a db/db mouse model experiments were performed at the Univerity of Torotno and were approved by the Animal Care Committee at the University of Toronto.
DIO study: Forty four (44) diet-induced obese C57BL/6J male mice (started on high fat diet at the age of 6 weeks) were used at 16 wks of age. The mice were ear notched for identification using the standard mouse ID format. Mice were housed at a density of 3-4 per cage in polycarbonate cages, which were both individually and positively ventilated. Bed-o'Cobs® corn cob bedding was provided and was changed every two weeks or as needed.
The animal room was lighted entirely with artificial fluorescent lighting on controlled 12 hr light/dark cycle (6 a.m. to 6 p.m. light). The normal temperature and relative humidity ranges in the animal rooms were maintained at 22±4° C. and 50±15%, respectively. The animal room was set for 15 air exchanges per hour. Filtered tap water acidified to a pH of 2.5 to 3.1 was provided ad libitum. High fat diet (60 kcal %) was provided ad libitum. Following a 2 week acclimation, 32 mice were chosen based on desired body weight range. Remaining mice were euthanized. Mice were randomized by body weight into four treatment groups (n=8) by body weight and non-fasting blood glucose taken three days prior to the start of dosing. Body weights, non-fasting blood glucose, and insulin were measured before dosing. Dosing occurred for 5 days. Fasting blood glucose and insulin were measured at the end of dosing (mice were fasted overnight on day 5, and insulin and blood glucose was measured on day 6). Mice were euthanized by CO2 euthanasia. An aliquot of whole blood was processed to measure insulin.

[4] = gavage twice daily for 5 days, 50 mpk idebenone, 30 mpk rosiglitazone

COC1=C(OC)C(=O)C(CCCCCCCCCCO)=C(C)C1=O [Idebenone, 2-(10-hydroxydecyl)-5,6-dimethoxy-3-methyl-2,5-cyclohexadiene-1,4-dione]
EC50 (hPPARγ [1]): 2500 nM | Maximum activation level versus full agonist, PPARγ (hPPARγ [1]; HEK293, full agonist rosiglitazone): significantly lower than those obtained using the full agonists | Hit activating the PPARγ ligand trap reporter fish line (hPPARγ [2]; Enzo FDA approved drug library, screened at 1, 3 and 10 μM): hits | Concentration yielding maximal activation in fish reporter system (hPPARγ [2]; in vivo): ≥ 4 µM | GFP reporter activation in LT-PPARγ embryos (hPPARγ [2]): more limited GFP expression in cells of the blood, epidermis and CNS | GFP reporter activation in LT-PPARγ embryos (hPPARγ [2]; listed as idebenone): weaker and less widespread than responses to rosiglitazone or pioglitazone; also recorded: dual agonists for PPARα and PPARγ | EC50 (hPPARγ [2]; zebrafish ligand trap, read-out: EC50 in fish): 2000 nM | Lipid accumulation / adipocyte differentiation (3T3-L1 cells): does not stimulate adipocyte differentiation and activity; also recorded: no accumulation of lipid | EC50 (PPARα): 3 µM | Maximum activation level versus full agonist, PPARα (PPARα; HEK293, full agonist GW7647): significantly lower than those obtained using the full agonists | Insulin resistance (HOMA-IR) ([3]; 50 mpk idebenone twice daily for 5 days): clear improvement | Blood glucose levels [3, 4]: trend towards lowered blood glucose levels; also recorded: lowers | Fasting insulin levels [3, 4]: reduction in fasting insulin levels; also recorded: lowers
